Experimental data reported in patent US5292733A, “Cephalosporin compounds” (Lucky Limited, priority 1991, dated 1994).
Values after ≈ are worked out from the molar mass of the structure shown.

Experiments:
Assay in all cases: Antibacterial activity MIC, two-fold agar dilution
Type in all cases: cell-based
[1] = system: Pseudomonas aeruginosa ATCC 10145; conditions: ATCC10145; Pseudomonas aeruginosa ATCC 10145; Muller-Hinton agar, 37° C., 20 hours; read-out: Antibacterial Activity MIC
Procedure: (§1) These MIC values were taken by employing a two-fold dilution method: that is, two-fold serial dilutions of each of the test compounds were made and dispersed in a Muller-Hinton agar medium; 2 μl of the standard test strain which had the 10^7 CFU(Colony Forming Unit) per ml was inoculated on the medium; and these were incubated at 37° C. for 20 hours. The results of the MIC tests are shown Table 1.

[2] = system: Streptococcus faecalis ATCC 29212; conditions: Enterococcus faecalis, ATCC29212; Streptococcus faecalis ATCC 29212; Muller-Hinton agar, 37° C., 20 hours; read-out: Antibacterial Activity MIC
Procedure: as §1

[3] = system: Shigella flexneri ATCC 11836; conditions: ATCC11836, Muller-Hinton agar, 37° C., 20 hours
Procedure: as §1

[4] = system: Staphylococcus aureus ATCC 6538p; conditions: ATCC6538P; Staphylococcus aureus ATCC 6538p; Muller-Hinton agar, 37° C., 20 hours; read-out: Antibacterial Activity MIC
Procedure: as §1

[5] = system: Citrobacter freundii ATCC 8090; conditions: ATCC8090; Citrobacter freundii ATCC 8090; Muller-Hinton agar, 37° C., 20 hours; read-out: Antibacterial Activity MIC
Procedure: as §1

[6] = system: Bacillus cereus ATCC 11778; conditions: ATCC11778; Bacillus cereus ATCC 11778; Muller-Hinton agar, 37° C., 20 hours; read-out: Antibacterial Activity MIC
Procedure: as §1

[7] = system: Proteus mirabilis ATCC 25933; conditions: ATCC25933; Proteus mirabilis ATCC 25933; Muller-Hinton agar, 37° C., 20 hours; read-out: Antibacterial Activity MIC
Procedure: as §1

[8] = system: Escherichia coli ATCC 10536; conditions: ATCC10536, Muller-Hinton agar, 37° C., 20 hours
Procedure: as §1

[9] = system: Pseudomonas aeruginosa ATCC 27853; conditions: ATCC27853; Pseudomonas aeruginosa ATCC 27853; Muller-Hinton agar, 37° C., 20 hours; read-out: Antibacterial Activity MIC
Procedure: as §1

[10] = system: Morganella morganii ATCC 8076h; conditions: ATCC8076H, Muller-Hinton agar, 37° C., 20 hours
Procedure: as §1

[11] = system: Staphylococcus aureus ATCC 10537; conditions: ATCC10537; Staphylococcus aureus ATCC 10537; Muller-Hinton agar, 37° C., 20 hours; read-out: Antibacterial Activity MIC
Procedure: as §1

[12] = system: Enterobacter cloacae ATCC 27508; conditions: ATCC27508; Enterobacter cloacae ATCC 27508; Muller-Hinton agar, 37° C., 20 hours; read-out: Antibacterial Activity MIC
Procedure: as §1

[13] = system: Salmonella typhimurium ATCC 14028; conditions: Salmonella enterica; Salmonella typhimurium ATCC 14028; Muller-Hinton agar, 37° C., 20 hours; read-out: Antibacterial Activity MIC
Procedure: as §1

[14] = system: Serratia marcescens ATCC 27117; conditions: ATCC27117; Serratia marcescens ATCC 27117; Muller-Hinton agar, 37° C., 20 hours; read-out: Antibacterial Activity MIC
Procedure: as §1

[15] = system: Enterobacter aerogenes ATCC 29751; conditions: Klebsiella aerogenes, ATCC29751; Enterobacter aerogenes ATCC 29751; Muller-Hinton agar, 37° C., 20 hours; read-out: Antibacterial Activity MIC
Procedure: as §1

[16] = system: Proteus vulgaris ATCC 6059; conditions: ATCC6059; Proteus vulgaris ATCC 6059; Muller-Hinton agar, 37° C., 20 hours; read-out: Antibacterial Activity MIC
Procedure: as §1

[17] = system: Acinetobacter calcoaceticus ATCC 15473; conditions: ATCC15473; Acinetobacter calcoaceticus ATCC 15473; Muller-Hinton agar, 37° C., 20 hours; read-out: Antibacterial Activity MIC
Procedure: as §1

[18] = system: Bacillus megaterium ATCC 9885; conditions: Priestia megaterium, ATCC9885; Bacillus megaterium ATCC 9885; Muller-Hinton agar, 37° C., 20 hours; read-out: Antibacterial Activity MIC
Procedure: as §1

[19] = system: Micrococcus luteus ATCC 9341; conditions: ATCC9341; Micrococcus luteus ATCC 9341; Muller-Hinton agar, 37° C., 20 hours; read-out: Antibacterial Activity MIC
Procedure: as §1

[20] = system: Pseudomonas aeruginosa ATCC 25619; conditions: ATCC25619; Pseudomonas aeruginosa ATCC 25619; Muller-Hinton agar, 37° C., 20 hours; read-out: Antibacterial Activity MIC
Procedure: as §1

[21] = system: Klebsiella pneumoniae ATCC 10031; conditions: ATCC10031; Klebsiella pneumoniae ATCC 10031; Muller-Hinton agar, 37° C., 20 hours; read-out: Antibacterial Activity MIC
Procedure: as §1

[22] = system: Shigella sonnei ATCC 11060; conditions: ATCC11060, Muller-Hinton agar, 37° C., 20 hours
Procedure: as §1

[23] = system: Escherichia coli ATCC 25922; conditions: ATCC25922, Muller-Hinton agar, 37° C., 20 hours
Procedure: as §1

[24] = system: Providencia rettgeri ATCC 9250; conditions: ATCC9250, Muller-Hinton agar, 37° C., 20 hours
Procedure: as §1

[25] = system: Staphylococcus epidermidis ATCC 12228; conditions: ATCC12228; Staphylococcus epidermidis ATCC 12228; Muller-Hinton agar, 37° C., 20 hours; read-out: Antibacterial Activity MIC
Procedure: as §1

Compound | MIC [1] [µg/mL] | MIC [2] [µg/mL] | MIC [3] [µg/mL] | MIC [4] [µg/mL] | MIC [5] [µg/mL] | MIC [6] [µg/mL] | MIC [7] [µg/mL] | MIC [8] [µg/mL] | MIC [9] [µg/mL] | MIC [10] [µg/mL] | MIC [11] [µg/mL] | MIC [12] [µg/mL] | MIC [13] [µg/mL] | MIC [14] [µg/mL] | MIC [15] [µg/mL] | MIC [16] [µg/mL] | MIC [17] [µg/mL] | MIC [18] [µg/mL] | MIC [19] [µg/mL] | MIC [20] [µg/mL] | further results
CC[n+]1c(SCC2=C(C(=O)[O-])N3C(=O)[C@@H](NC(=O)/C(=N\OC)c4csc(N)n4)[C@H]3SC2)cc(N)nc1N [Compound I-8, (6R,7R)-7-[(Z)-2-(2-aminothiazol-4-yl)-2-(methoxyimino)acetamido]-3-(2,6-diamino-3-ethylpyrimidinium-4-yl)thiomethyl-3-cephem-4-carboxylate] | 32 (≈ 56.6 µM) | > 128 | 0.063 (≈ 0.111 µM) | 2 (≈ 3.54 µM) | 0.13 (≈ 0.23 µM) | 64 (≈ 113 µM) | 0.031 (≈ 0.0548 µM) | 0.063 (≈ 0.111 µM) | 16 (≈ 28.3 µM) | 0.016 (≈ 0.0283 µM) | 1 (≈ 1.77 µM) | 0.016 (≈ 0.0283 µM) | 0.5 (≈ 0.884 µM) | 0.5 (≈ 0.884 µM) | 0.5 (≈ 0.884 µM) | 0.063 (≈ 0.111 µM) | 8 (≈ 14.1 µM) | 0.13 (≈ 0.23 µM) | 0.063 (≈ 0.111 µM) | 2 (≈ 3.54 µM) | MIC [21]: 0.016 µg/mL (≈ 0.0283 µM); MIC [22]: 0.5 µg/mL (≈ 0.884 µM); MIC [23]: 0.063 µg/mL (≈ 0.111 µM); MIC [24]: ≤ 0.008 µg/mL; MIC [25]: 0.5 µg/mL (≈ 0.884 µM)
C[n+]1c(N)cc(SCC2=C(C(=O)[O-])N3C(=O)[C@@H](NC(=O)/C(=N\OCC(=O)O)c4csc(N)n4)[C@H]3SC2)nc1N [Compound I-17, (6R,7R)-7-[(Z)-2-(2-aminothiazol-4-yl)-2-(carboxymethoxyimino)acetamido]-3-(2,6-diamino-1-methylpyrimidinium-4-yl)thiomethyl-3-cephem-4-carboxylate] | 4 (≈ 6.72 µM) | > 128 | 0.016 (≈ 0.0269 µM) | 8 (≈ 13.4 µM) | 0.031 (≈ 0.052 µM) | > 128 | 0.031 (≈ 0.052 µM) | 0.031 (≈ 0.052 µM) | 2 (≈ 3.36 µM) | ≤ 0.008 | 4 (≈ 6.72 µM) | 0.016 (≈ 0.0269 µM) | 0.063 (≈ 0.106 µM) | 0.063 (≈ 0.106 µM) | 1 (≈ 1.68 µM) | 0.063 (≈ 0.106 µM) | 16 (≈ 26.9 µM) | 0.5 (≈ 0.839 µM) | 1 (≈ 1.68 µM) | 1 (≈ 1.68 µM) | MIC [21]: 0.031 µg/mL (≈ 0.052 µM); MIC [22]: 0.031 µg/mL (≈ 0.052 µM); MIC [23]: 0.016 µg/mL (≈ 0.0269 µM); MIC [24]: ≤ 0.008 µg/mL; MIC [25]: 2 µg/mL (≈ 3.36 µM)
CC[n+]1c(N)cc(SCC2=C(C(=O)[O-])N3C(=O)[C@@H](NC(=O)/C(=N\OC(C)(C)C(=O)O)c4csc(N)n4)[C@H]3SC2)nc1N [Compound I-13, (6R,7R)-7-[(Z)-2-(2-aminothiazol-4-yl)-2-(carboxyprop-2-oxyimino)acetamido]-3-(2,6-diamino-1-ethylpyrimidinium-4-yl)thiomethyl-3-cephem-4-carboxylate] | 2 (≈ 3.14 µM) | > 128 | 0.063 (≈ 0.0988 µM) | 8 (≈ 12.5 µM) | 0.13 (≈ 0.204 µM) | 128 (≈ 201 µM) | 0.13 (≈ 0.204 µM) | 0.13 (≈ 0.204 µM) | 1 (≈ 1.57 µM) | ≤ 0.008 | 4 (≈ 6.27 µM) | 0.031 (≈ 0.0486 µM) | 0.25 (≈ 0.392 µM) | 0.5 (≈ 0.784 µM) | 2 (≈ 3.14 µM) | 0.25 (≈ 0.392 µM) | 8 (≈ 12.5 µM) | 0.25 (≈ 0.392 µM) | 0.5 (≈ 0.784 µM) | 1 (≈ 1.57 µM) | MIC [21]: 0.063 µg/mL (≈ 0.0988 µM); MIC [22]: 0.25 µg/mL (≈ 0.392 µM); MIC [23]: 0.13 µg/mL (≈ 0.204 µM); MIC [24]: ≤ 0.008 µg/mL; MIC [25]: 2 µg/mL (≈ 3.14 µM)
CCO/N=C(\C(=O)N[C@@H]1C(=O)N2C(C(=O)[O-])=C(CSc3cc(N)nc(N)[n+]3C)CS[C@H]12)c1nsc(N)n1 [Compound I-5, (6R,7R)-7-[(Z)-2-(5-amino-1,2,4-thiadiazol-3-yl)-2-(ethoxyimino)acetamido]-3-(2,6-diamino-3-methylpyrimidinium-4-yl)thiomethyl-3-cephem-4-carboxylate] | 32 (≈ 56.5 µM) | > 128 | 0.063 (≈ 0.111 µM) | 2 (≈ 3.53 µM) | 0.25 (≈ 0.441 µM) | 64 (≈ 113 µM) | 0.061 (≈ 0.108 µM) | 0.13 (≈ 0.229 µM) | 16 (≈ 28.2 µM) | ≤ 0.008 | 1 (≈ 1.76 µM) | 0.016 (≈ 0.0282 µM) | 0.5 (≈ 0.882 µM) | 0.5 (≈ 0.882 µM) | 0.5 (≈ 0.882 µM) | 0.031 (≈ 0.0547 µM) | 8 (≈ 14.1 µM) | 0.13 (≈ 0.229 µM) | 0.031 (≈ 0.0547 µM) | 2 (≈ 3.53 µM) | MIC [21]: 0.016 µg/mL (≈ 0.0282 µM); MIC [22]: 0.25 µg/mL (≈ 0.441 µM); MIC [23]: 0.13 µg/mL (≈ 0.229 µM); MIC [24]: ≤ 0.008 µg/mL; MIC [25]: 0.5 µg/mL (≈ 0.882 µM)
